Source: US6046228A, “Anti-viral pharmaceutical compositions containing saturated 1,2-dithiaheterocyclic compounds and uses thereof” (priority 1999, dated 2000)
Where two headings read alike, the source gives them in different places.

What was measured:
HIV-1RF virions = assay: viral inactivation assay, HeLa-CD4-LTR-βgal cells; format: cell-based; details: FIG. 2(B), in words
Protocol: HeLa-CD4-LTR-βgal cells (1.5×10^4 /well) were plated in 200 μl volume in flat bottom 96-well microtiter plates for 24 hours, after which the fluid was removed and replaced with drug-treated samples. The HIV-1RF stock was treated with various concentrations NSC 624151 for 2 hours at 37° C., followed by centrifugation (18,000×g for 1 hour at 4° C.) to remove compound from the virus, preparation of serial two-fold dilutions and plating of 200 μl of each dilution in triplicate onto the cell monolayer. The cultures were then incubated for 4 additional days, and monolayers were then fixed for 5 minutes with 2% formaldehyde/2% glutaraldehyde, washed twice with cold PBS and then stained with X-gal substrate for 24 hours at 37° C. The number of blue-stained cells (each indicating a single infectious unit) were then counted in each well and the number of infectious units per ml (mean±SD) of sample were determined values calculated.

HIV-1 Thiazol-108 = assay: XTT cytopathicity assay, drug resistant HIV-1; format: cell-based; details: MT-2, Thiazol-108
Protocol: (§1) Initial anti-HIV screening was performed with CEM-SS cells and HIV-1RFusing the XTT cytoprotection assay as previously described (Weislow et al., J. National Cancer Inst. 81: 577-586, (1989)). HIV-1 isolates included common laboratory stains (RF, IIIB and MN), as well as a panel of HIV-1 clinical isolates (Cushman et al., J. Med. Chem. 37: 3040-3050, (1994)). The pyridone-resistant HIV-1A17 isolate (Nunberg et al., J. Virol., 65: 4887-4892 (1991)) was obtained from Emilio Emini at Merck Sharpe and Dohme Laboratories. Phytohemagglutinin-stimulated human peripheral blood lymphocytes (PBLs) and fresh monocyte-macrophage (Mono/MF) cultures were prepared and utilized in antiviral assays as previously described (Rice et al., Proc. Nat'l. Academy Science, USA 90: 9721-9724, (1993)); (Cushman et al., J. Med. Chem. 37: 3040-3050, (1994)). EC50 values for these cultures indicate the drug concentration that provided a 50% reduction in viral p24 production. […] The compounds can be synthesized according to the teachings of Singh et al., Sulfur Letters 8: 107-114, (1988). The 4,5-cis-dihydroxy(1,1-dioxy-1,2,-dithiohexane) compound (NSC 624151) has been abbreviated as 624151 for convenience. MT-2, MT-4, U1, HeLa-CD4-LTR-β-gal and 174xCEM cells were obtained from the AIDS Research and Reference Program (National Institute of Allergy and Infectious Disease, National Institutes of Health, Bethesda, Md. USA), as were the HIV-2MS and the AZT-resistant HIV-1G910-6 isolates.
(§2) ^a Anti-HIV studies utilizing lymphocytederived cell lines were
(§3) performed using the XTT cytopathicity assay, while antiviral assays

HIV-1 E-BPTU-181 = assay: XTT cytopathicity assay, drug resistant HIV-1; format: cell-based; details: MT-2, E-BPTU-181
Protocol: as §1, §2, §3

HIV-1 TIBO-98/100 = assay: XTT cytopathicity assay, drug resistant HIV-1; format: cell-based; details: MT-2, TIBO-98/100
Protocol: as §1, §2, §3

HIV-1 p66-p51 RT = target: T1, HIV-1 p66-p51 RT (Human immunodeficiency virus type 1 group M subtype B, UniProt P04585); assay: reverse transcriptase activity assay; format: biochemical; details: for inhibition of HIV-1 RT: in words
T1 construct: the purified HIV-1 p66-p51 RT enzyme
Protocol: The effects of 624151 on the in vitro activity of purified RT was determined by measurement of incorporation of [^3 H]TTP onto the poly(rA):oligo(dT)(rAdT) or poly(rC):oligo(dG)(rCdG) homopolymer template/primer systems. Samples (5 μL) were blotted onto DE81 paper, washed with 5% dibasic sodium phosphate as previously described (Buckheit et al., Antiviral Res. 21:247, (1993)), and then quantitated on a Packard Matrix 9600 dual beam counter. 3'-Azido-3'-deoxythymidine-5 '-triphosphateand UC38 (NSC 629243) served as positive controls for inhibition of RT. HIV-1 protease activity was quantitated by a reversed phase HPLC assay utilizing the […]Amide substrate (Multiple Peptide Systems, San Diego, Calif.) as previously described in Rice et al. (Proc. Nat'l. Academy of Science USA 9: 9721-9724, (1993)).

HIV-1 Ba-L = assay: antiviral assay in Mo/M.PHI. (p24), Ba-L; format: cell-based; details: Human immunodeficiency virus 1, BAL, cell-free p24
Protocol: as §1, with “MT-2, MT-4, U1, HeLa-CD4-LTR-β-gal and 174xCEM cells were obtained from the AIDS Research and Reference Program (National Institute of Allergy and Infectious Disease, National Institutes of Health, Bethesda, Md. USA), as were the HIV-2MS and the AZT-resistant HIV-1G910-6 isolates.” left out

[1] = test system: monocyte-macrophage (Mo/M.PHI.) cultures; assay: cytotoxicity in monocyte-macrophage cultures; format: cell-based
Protocol: as §1

CEM-SS cells = assay: XTT assay, cytotoxicity (IC50), CEM-SS cells; format: cell-based
Protocol: as §1, with “The 4,5-cis-dihydroxy(1,1-dioxy-1,2,-dithiohexane) compound (NSC 624151) has been abbreviated as 624151 for convenience.” left out
Racemate and enantiomers of the cis-1,1-dioxo[1,2]dithiane-4,5-diol were synthesized and evaluated for antiviral activity in the XTT assay as described hereinabove.

HIV-1NL4-3 = assay: XTT cytopathicity assay, NL4-3 without RT mutation; format: cell-based; details: Human immunodeficiency virus 1, NL43; MT-2, NL4-3, RT mutation None
Protocol: as §1, with “MT-2, MT-4, U1, HeLa-CD4-LTR-β-gal and 174xCEM cells were obtained from the AIDS Research and Reference Program (National Institute of Allergy and Infectious Disease, National Institutes of Health, Bethesda, Md. USA), as were the HIV-2MS and the AZT-resistant HIV-1G910-6 isolates.” left out

Q: Which “inactivation of viral infectivity” value (HIV-1RF virions) does the source give for `O=S1(=O)C[C@H](O)[C@H](O)CS1` (relative stereo) [NSC 624151, cis-1,1-dioxo[1,2]dithiane-4,5-diol] here?
A: The value was “enter intact virions and inactivate the viral infectivity”.

Q: What about the “inactivation of viral infectivity” value (HIV-1RF virions; listed as 624151) of the same molecule?
A: The value was “concentration-dependant inactivation of viral infectivity”.

Q: And the EC50 (HIV-1 Thiazol-108)?
A: The EC50 was 17 µM.

Q: And the EC50 (HIV-1 E-BPTU-181)?
A: The EC50 was 17 µM.

Q: What about the EC50 (HIV-1 TIBO-98/100) of the same molecule?
A: Its EC50 is 16 µM.

Q: And the “inhibition of HIV-1 RT” value (HIV-1 p66-p51 RT; rAdT template/primer)?
A: Its value is “not inhibited”.

Q: And the IC50 (HIV-1 p66-p51 RT; rAdT, read-out: RT Activity rAdT ID50)?
A: The IC50 was greater than 100 µM.

Q: And the “inhibition of HIV-1 RT” value (HIV-1 p66-p51 RT; rCdG template/primer)?
A: The value was “not inhibited”.

Q: And the EC50 (HIV-1 Ba-L)?
A: Its EC50 is 6.2 µM.

Q: What about the IC50 [1] of the same molecule?
A: Its IC50 is greater than 100 µM.

Q: And the IC50 (CEM-SS cells; Homo sapiens, CEM-SS, Table 5, cytotoxicity, read-out: IC50 Duplicates)?
A: Its IC50 is 116 µM.

Q: What about the IC50 (CEM-SS cells; Homo sapiens, CEM-SS, Table 5, cytotoxicity, read-out: IC50 Mean) of the same molecule?
A: Its IC50 is 122 µM.

Q: And the IC50 (CEM-SS cells; Homo sapiens, CEM-SS, cytotoxicity, CEM-SS cells, read-out: XTT Assay IC50)?
A: The IC50 was 184 µM.

Q: And the IC50 (CEM-SS cells; Table 5, cytotoxicity, read-out: IC50 Duplicates)?
A: The IC50 was 127 µM.

Q: And the EC50 (HIV-1NL4-3)?
A: The EC50 was 16.6 µM.
